Assay results reported in patent publication US20230243825A1, “ADAPTIVE NANOPARTICLE PLATFORMS FOR HIGH THROUGHPUT EXPANSION AND DETECTION OF ANTIGEN-SPECIFIC T CELLS” (The Johns Hopkins University, priority 2020, published 2023).

Legend:
B16-OVA tumor cells = assay: IFN-γ pre-incubation of tumor cells; format: cell-based; conditions: overnight pre-incubation
Procedure: Whether this same approach can be expanded to other tumor models was then examined by applying it to B16-OVA. Initial results were inconclusive, so an attempt to increase the amount of recoverable peptide was made by pre-incubating tumor cells overnight with IFN-γ to upregulate MHC I on their surface. […] The calculated yield was approximately […] of peptide per 1×10^4 tumor cells, still roughly 0.00002% (w/w) of the eluted 100 micrograms of peptide.

[1] = system: SIY and VDW-specific CD8+ T cells; assay: In vivo peptide vaccination with poly I:C, dimer staining; set-up: species or system mouse; conditions: Day 0 and Day 7, harvest Day 15
Description: On Day 15, mouse spleens and lymph nodes were harvested for dimer and particle staining, following similar protocols described above.

Row | Substance | MHC I expression on tumor cells (B16-OVA tumor cells) | peptide-specific CD8+ T cells, dimer staining pre- vs post-vaccination [1]
1 | IFNγ | drastically increased | –
2 | SIYRYYGL | – | significant increases
3 | VDWENVSPEL | – | significant increases
